Experimental findings from US4536502A (priority 1982, dated 1985) are described below.

In assay [1] the test system is Tetranychus urticae koch, parthenogenetic females. Briefly: Acaricidal activity by contact-ingestion. Type of assay: in vivo. The note with it: bean leaves treated by dipping, three days after contamination, average of two experiments. Here is the method: Acaricidal activity by contact-ingestion
(foliage treated by dipping: Tetranychus urticae koch, parthenogenetic females).
An aqueous emulsion of the active ingredient to be tested is prepared by grinding the latter, in a Potter mill, in water containing 0.02% of Tween 80. The aqueous emulsion is then brought to the desired concentration by dilution with water containing 0.01% of Scurol O.
Bean plants (Phaseolus vulgaris--Contender variety) at the "cotyledonary leaf" stage are used. Each plant is treated by dipping the leaves for 10 seconds in the aqueous emulsion containing the active ingredient to be tested, at the desired concentration, two plants being used for each concentration. The experiment was carried out for active ingredient concentrations ranging from 2,000 mg/liter to 10 mg/liter. The bean plants are kept alive by immersing the roots and the base of the stem in distilled water.
After the surface of the foliage has dried, contamination is carried out by depositing, on each bean leaf, a highly contaminated leaf fragment produced by mite breeding. This leaf fragment is removed after 24 hours.
Three days after contamination, the number of dead mites and the number of living mites are counted under a binocular magnifying glass.
The percentage mortality is thus determined for each concentration (average of two experiments). […]

Another assay deals with Phytophthora infestans. Briefly: whole plant or invertebrate. The note with it: in Solanum lycopersicum, read-out: percentage inhibition of the development of the fungus. The format is in vivo.
The test system of another assay is Peronospora tabacina. Nature of the assay: Greenhouse test on tobacco mildew. The format is in vivo, Peronospora tabacina (on Nicotiana tabacum, Samson variety). The note with it: for inhibition at 15 µg/mL: dose of 15 mg/liter; for inhibition at 500 µg/mL: dose of 500 mg/liter. An excerpt: Greenhouse test on tobacco mildew
The procedure of the previous example is followed, except that the plants are tobacco plants (Nicotiana tabacum) of the Samson variety, and that these plants are contaminated with spores of Peronospora tabacina, which is responsible for tobacco mildew.
Under these conditions, it was observed that, for the compounds or mixtures of compounds described in the above examples, the minimum inhibitory concentrations causing from 95 to 100% inhibition of the fungus in question (MIC 95-100) are respectively as follows:
In this experiment, the observed percentage inhibition of the development of the fungus in question was between 20% and 90%: […]

[2] abbreviates: read-out: percentage inhibition of the development of the fungus.

With `CN(C)S(=O)(=O)n1c(C#N)nc2c(C(F)(F)F)cc(C(F)(F)F)cc21` [Compound 70], the “LC90, concentration which causes 90% mortality of the mites” value in assay [1] came out at 10 mg/L. As a reminder, the inhibition is how much of the control response was suppressed. Turning to `Cc1cc(Br)cc2c1nc(C#N)n2S(=O)(=O)N(C)C` [Compound 43], the inhibition at 500 µg/mL in the assay with Phytophthora infestans was in the range of 20 to 90%. Take `CC(C)S(=O)(=O)n1c(C#N)nc2ccccc21` [Compound 22]: the inhibition at 15 µg/mL in the assay with Peronospora tabacina (setting [2]) was 20 to 90%. With `CN(C)S(=O)(=O)n1c(C#N)nc2cc(C(C)(C)C)ccc21` [Compound 11], in the assay with Phytophthora infestans, the inhibition at 500 µg/mL is 20 to 90%.

As to `CN(C)S(=O)(=O)n1c(C#N)nc2c(Cl)c(Cl)ccc21` [Compound 45], the inhibition at 4 µg/mL with Phytophthora infestans lay in the range of 20 to 90%.

With `CN(C)S(=O)(=O)n1c(C#N)nc2c(N)cccc21` [Compound 42], in the assay on Peronospora tabacina (setting [2]), the inhibition at 500 µg/mL lay in the range of 20 to 90%. On to `CS(=O)(=O)n1c(C#N)nc2c(Cl)cc(Cl)cc21` [Compound 17], for which the inhibition at 15 µg/mL with Phytophthora infestans lay in the range of 20 to 90%.

With `COc1cc2c(nc(C#N)n2S(=O)(=O)N(C)C)c([N+](=O)[O-])c1OC` [Compound 28], the inhibition at 500 µg/mL in the assay on Peronospora tabacina (setting [2]) and with Phytophthora infestans was 20 to 90% each time. Regarding `N#Cc1nc2c(Cl)cc(Cl)cc2n1S(=O)(=O)N1CCCC1` [Compound 57], the inhibition at 15 µg/mL in the assay on Peronospora tabacina (setting [2]) lay in the range of 20 to 90%. For `CN(C)S(=O)(=O)n1c(C#N)nc2c(Br)cc(Br)cc21` [Compound 39], the inhibition at 8 µg/mL in the assay with Phytophthora infestans was in the range of 20 to 90%. For the compound `N#Cc1nc2ccccc2[nH]1` [2-Cyanobenzimidazole, 2-cyanobenzimidazole, reference compound], the inhibition at 1000 µg/mL in the assay on Peronospora tabacina (dose of 1,000 mg/liter, read-out: % inhibition (antifungal activity)) stood at 0%. With `Cc1c(Cl)ccc2c1nc(C#N)n2S(=O)(=O)N(C)C` [Compound 50], the inhibition at 500 µg/mL in the assay with Phytophthora infestans lay within 20 to 90%. Take `Cc1c([N+](=O)[O-])ccc2c1nc(C#N)n2S(=O)(=O)N(C)C` [Compound 64]: the inhibition at 15 µg/mL with Peronospora tabacina (setting [2]) is 20 to 90%. As to `CN(C)S(=O)(=O)n1c(C#N)nc2c(C(F)(F)F)cc(Cl)cc21` [Compound 61], the “LC90, concentration which causes 90% mortality of the mites” value in assay [1] was 2,000 mg/liter.

Regarding `CS(=O)(=O)n1c(C#N)nc2ccccc21` [Compound 16], the inhibition at 15 µg/mL with Peronospora tabacina (setting [2]) lay within 20 to 90%. For the compound `Cc1cc2nc(C#N)n(S(=O)(=O)N(C)C)c2cc1C` [Compound 8], in the assay with Phytophthora infestans, the inhibition at 500 µg/mL is 20 to 90%.

For `CC(C)S(=O)(=O)n1c(C#N)nc2c(Cl)cccc21` [Compound 21], in the assay with Peronospora tabacina (dose of 8 mg/liter, read-out: percentage inhibition of the development of the fungus), the inhibition at 8 µg/mL is 20 to 90%.
